These results are taken from ChEMBL document CHEMBL1156935, “Discovery of potent BACE-1 inhibitors containing a new hydroxyethylene (HE) scaffold: exploration of P1' alkoxy residues and an aminoethylene (AE) central core” (Bioorg Med Chem, 2010).

The target of assay [1] is Cathepsin D (Homo sapiens, UniProt P07339).
Description: Inhibition of human cathepsin D
Assay [2] has as its target Beta-secretase 1 (Homo sapiens, UniProt P56817).
Description: Inhibition of human BACE1 expressed in Escherichia coli BL21(DE3) by resolved fluorescence assay
The species named for assay [3] is Homo sapiens. The experiment in a line: Selectivity for human BACE1 over human cathepsin D.

Structures are written as SMILES. pKi: −log10 of the molar value.

Sequence of Cathepsin D (P07339 65-162 limits assumed): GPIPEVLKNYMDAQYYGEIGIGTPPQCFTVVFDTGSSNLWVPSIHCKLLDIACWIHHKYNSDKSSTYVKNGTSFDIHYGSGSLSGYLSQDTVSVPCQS
Sequence of Cathepsin D (P07339 169-412 limits assumed): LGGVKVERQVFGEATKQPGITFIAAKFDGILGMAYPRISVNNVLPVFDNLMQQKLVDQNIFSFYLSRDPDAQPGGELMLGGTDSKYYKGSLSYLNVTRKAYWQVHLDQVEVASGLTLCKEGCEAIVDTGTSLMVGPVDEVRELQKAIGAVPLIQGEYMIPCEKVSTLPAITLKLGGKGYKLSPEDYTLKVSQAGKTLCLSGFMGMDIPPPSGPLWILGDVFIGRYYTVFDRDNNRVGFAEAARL
Sequence of Beta-secretase 1 (P56817 whole entry): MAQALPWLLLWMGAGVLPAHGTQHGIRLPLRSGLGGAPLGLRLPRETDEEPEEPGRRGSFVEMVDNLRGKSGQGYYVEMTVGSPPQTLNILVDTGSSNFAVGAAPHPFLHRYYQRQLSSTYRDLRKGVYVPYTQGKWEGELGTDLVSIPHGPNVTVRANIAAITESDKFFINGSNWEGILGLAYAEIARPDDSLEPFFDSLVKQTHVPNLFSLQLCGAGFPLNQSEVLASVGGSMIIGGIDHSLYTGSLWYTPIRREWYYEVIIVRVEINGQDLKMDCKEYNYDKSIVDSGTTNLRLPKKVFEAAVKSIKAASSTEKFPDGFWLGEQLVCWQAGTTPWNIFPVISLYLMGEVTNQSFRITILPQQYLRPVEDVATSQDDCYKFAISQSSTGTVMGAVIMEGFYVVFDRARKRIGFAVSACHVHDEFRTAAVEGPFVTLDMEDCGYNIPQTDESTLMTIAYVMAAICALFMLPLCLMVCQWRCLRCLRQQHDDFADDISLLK

As to `C=CCO[C@H](C[C@H](O)[C@H](COc1cc(F)cc(F)c1)NC(=O)c1cc(C(=O)N[C@H](C)c2ccccc2)cc(N(C)S(C)(=O)=O)c1)C(=O)N[C@H](C(=O)NCc1ccccc1)C(C)C`, the pKi in assay [1] was 6.89; in assay [2], 8.48.
With `CC(C)[C@H](NC(=O)[C@@H](C[C@H](O)[C@H](COc1cc(F)cc(F)c1)NC(=O)c1cc(C(=O)N[C@H](C)c2ccccc2)cc(N(C)S(C)(=O)=O)c1)OCc1ccccc1)C(=O)NCc1ccccc1`, the pKi in assay [1] is 7.21; in assay [2], 7.70. Besides, the Ratio Ki in assay [3] stood at 1.6.
`CC(C)[C@H](NC(=O)[C@@H](C[C@H](O)[C@H](COc1cc(F)cc(F)c1)NC(=O)c1cc(C(=O)N[C@H](C)c2ccccc2)cc(N(C)S(C)(=O)=O)c1)OCC1CC1)C(=O)NCc1ccccc1`: the pKi in assay [2] was 8.89.
Take `CO[C@H](C[C@H](N)C(COc1cc(F)cc(F)c1)NC(=O)c1cc(C(=O)N[C@H](C)c2ccccc2)cc(N(C)S(C)(=O)=O)c1)C(=O)N[C@H](C(=O)NCc1ccccc1)C(C)C` (single isomer, unassigned): the pKi in assay [1] is less than 5.30; in assay [2], 6.85.
For `CO[C@H](CCC(COc1cc(F)cc(F)c1)NC(=O)c1cc(C(=O)N[C@H](C)c2ccccc2)cc(N(C)S(C)(=O)=O)c1)C(=O)N[C@H](C(=O)NCc1ccccc1)C(C)C` (single isomer, unassigned), in that order: less than 5.30 and 6.89.
On to `CCO[C@H](C[C@H](O)[C@H](COc1cc(F)cc(F)c1)NC(=O)c1cc(C(=O)N[C@H](C)c2ccccc2)cc(N(C)S(C)(=O)=O)c1)C(=O)N[C@H](C(=O)NCc1ccccc1)C(C)C`, for which the values for the pKi in assay [1] and in assay [2] were 5.47 and 8.68, respectively. The Ratio Ki in assay [3] was greater than 1500.
Regarding `CCCO[C@H](C[C@H](O)[C@H](COc1cc(F)cc(F)c1)NC(=O)c1cc(C(=O)N[C@H](C)c2ccccc2)cc(N(C)S(C)(=O)=O)c1)C(=O)N[C@H](C(=O)NCc1ccccc1)C(C)C`, the pKi was 7.21 in assay [1] and 8.52 in assay [2].
For `CO[C@H](C[C@H](N=[N+]=[N-])C(COc1cc(F)cc(F)c1)NC(=O)c1cc(C(=O)N[C@H](C)c2ccccc2)cc(N(C)S(C)(=O)=O)c1)C(=O)N[C@H](C(=O)NCc1ccccc1)C(C)C` (single isomer, unassigned), in that order: less than 5.30 and 7.15.
